Assay results from patent US20260284011A1, “COMPOUNDS FOR RESTORING SUSCEPTIBILITY TO BETA-LACTAM ANTIBIOTICS” (UNIVERSITY OF NOTRE DAME DU LAC, priority 2023, published 2026).
Where two headings read alike, the source gives them in different places.

Assays:
[1] = system: HIP15178 (VRS5), MRSA/VRSA, SCCmec II, bla +; experiment: MIC determination and potentiation assay (microdilution broth); format: cell-based, Staphylococcus aureus; settings: Staphylococcus aureus
Method: (§1) MICs were determined by the microdilution broth method following the Clinical & Laboratory Standards Institute (CLSI) guidelines. […] Experiments were performed in triplicate in 96-well plates with 5×10^5 CFU·mL^−1 of bacteria. […] The MIC was the concentration for which bacterial growth was not observed.

[2] = system: ATCC 29213, MSSA, bla +; experiment: as above; format: cell-based, Staphylococcus aureus; settings: Staphylococcus aureus
Method: as §1

[3] = system: LIM2 (NRS36), MRSA, SCCmec I, bla +; experiment: as above; format: cell-based, Staphylococcus aureus; settings: Staphylococcus aureus
Method: as §1

[4] = system: JE2, MRSA, SCCmec IV, bla −; experiment: as above; format: cell-based, Staphylococcus aureus; settings: Staphylococcus aureus, MRSA, agent alone
Method: as §1

[5] = system: HIP07920 (NRS21), MRSA/VISA, SCCmec IV, bla +; experiment: as above; format: cell-based, Staphylococcus aureus; settings: HIP07920 (NRS21); for MIC: Staphylococcus aureus, agent alone
Method: as §1

[6] = system: COL (NRS100), MRSA, SCCmec I, bla −; experiment: as above; format: cell-based, Staphylococcus aureus; settings: Staphylococcus aureus
Method: as §1

[7] = system: NTCT 8325 (NRS77), MSSA, bla −; experiment: as above; format: cell-based, Staphylococcus aureus; settings: Staphylococcus aureus
Method: as §1

[8] = system: HIP 133170 (VRS3a), MRSA/VRSA, SCCmec IV, bla +; experiment: as above; format: cell-based, Staphylococcus aureus; settings: Staphylococcus aureus
Method: as §1

[9] = system: MW2 (NRS123), MRSA, SCCmec IV, bla +; experiment: as above; format: cell-based; settings: Staphylococcus aureus
Method: as §1

[10] = system: FPR3757, MRSA, USA300 clone, SCCmec IV, bla +; experiment: as above; format: cell-based; settings: Staphylococcus aureus
Method: as §1

[11] = system: CA-347 (NRS648), MRSA, SCCmec II, bla +; experiment: as above; format: cell-based; settings: Staphylococcus aureus
Method: as §1

[12] = system: HIP 07930 (NRS22), MRSA/VISA, SCCmec II, bla +; experiment: as above; format: cell-based; settings: Staphylococcus aureus
Method: as §1

[13] = system: SR4035, MRSA, SCCmec IV, bla +; experiment: as above; format: cell-based; settings: Staphylococcus aureus
Method: as §1

[14] = system: AIS 1000505 (VRS10), MRSA, vancomycin-resistant, SCCmec II, bla +; experiment: as above; format: cell-based; settings: Staphylococcus aureus
Method: as §1

[15] = system: 880, MRSA, SCCmec IV, bla +; experiment: as above; format: cell-based
Method: as §1

[16] = system: HIP06297 (NRS17), MRSA, SCCmec II, bla +; experiment: as above; format: cell-based; settings: Staphylococcus aureus
Method: as §1

[17] = system: HFH 30495, MRSA, SCCmec II, bla +; experiment: as above; format: cell-based; settings: Staphylococcus aureus
Method: as §1

[18] = system: LinR#12 (NRS119), MRSA, SCCmec IV, bla +; experiment: as above; format: cell-based; settings: Staphylococcus aureus
Method: as §1

[19] = system: CO-23 (NRS661), MRSA, SCCmec II, bla +; experiment: as above; format: cell-based; settings: Staphylococcus aureus
Method: as §1

[20] = system: M1712 (NRS127), MRSA, SCCmec II, bla +; experiment: as above; format: cell-based; settings: Staphylococcus aureus
Method: as §1

[21] = system: CO-34 (NRS662), MRSA, SCCmec IV, bla +; experiment: as above; format: cell-based; settings: Staphylococcus aureus
Method: as §1

[22] = system: CM05, MRSA, SCCmec I, bla +; experiment: as above; format: cell-based; settings: Staphylococcus aureus
Method: as §1

[23] = system: HT 20020320 (NRS245), MRSA, SCCmec IV, bla +; experiment: as above; format: cell-based; settings: Staphylococcus aureus
Method: as §1

[24] = system: various MRSA strains (NRS21, NRS70, NRS382, NRS404, HFH29568, HFH30495); experiment: Time-kill assays (FIG. 6); format: cell-based, Staphylococcus aureus; settings: at 24 h
Method: Time-kill assay. MRSA strains (NRS21, NRS70, NRS382, NRS404, HFH 29568, and HFH 30495) were grown overnight on tryptic soy agar plate. Bacteria were diluted in Muller-Hinton broth containing 2% NaCl to […] CFU·mL^−1. […] For MEM and CPT, cation-adjusted Muller-Hinton broth without 2% NaCl was used. Aliquots were taken at 0, 3, 6, 9, 12, and 24 h and were diluted serially for bacterial counts. The assay was done in triplicate.

[25] = ATCC 29213, agent alone, read-out: MIC
[26] = COL (NRS100), agent alone, read-out: MIC
[27] = NTCT 8325 (NRS77), agent alone, read-out: MIC
[28] = MW2 (NRS123), agent alone, read-out: MIC
[29] = FPR3757, agent alone, read-out: MIC
[30] = Staphylococcus aureus, 880, agent alone, read-out: MIC
[31] = HIP06297 (NRS17), agent alone, read-out: MIC
[32] = HFH 30495, agent alone, read-out: MIC
[33] = LinR#12 (NRS119), agent alone, read-out: MIC
[34] = CO-34 (NRS662), agent alone, read-out: MIC

SMILES	MIC [1]	MIC [2, 25]	MIC [3]	MIC [4]	MIC [5]	MIC [6, 26]	MIC [7, 27]	MIC [8]	MIC [9, 28]	MIC [10, 29]	MIC [11]	MIC [12]	MIC [13]	MIC [14]	MIC [15, 30]	MIC [16, 31]	MIC [17, 32]	MIC [18, 33]	MIC [19]	MIC [22]	other results
CO[C@@]1(NC(=O)Cc2cccs2)C(=O)N2C(C(=O)O)=C(COC(N)=O)CS[C@@H]21 [FOX, cefoxitin]	128 µg/mL	4 µg/mL	128 µg/mL	64 µg/mL	64 µg/mL	256 µg/mL	4 µg/mL	128 µg/mL	64 µg/mL	64 µg/mL	128 µg/mL	128 µg/mL	128 µg/mL	128 µg/mL	64 µg/mL	256 µg/mL	256 µg/mL	256 µg/mL	128 µg/mL	512 µg/mL	MIC [20]: 128 µg/mL; MIC [21, 34]: 64 µg/mL; MIC [23]: 128 µg/mL
C[C@@H](O)[C@H]1C(=O)N2C(C(=O)O)=C(S[C@@H]3CN[C@H](C(=O)N(C)C)C3)[C@H](C)[C@H]12 [MEM, meropenem]	–	0.13 µg/mL	–	4 µg/mL	8 µg/mL	16 µg/mL	0.13 µg/mL	–	4 µg/mL	4 µg/mL	–	–	–	–	16 µg/mL	4 µg/mL	32 µg/mL	32 µg/mL	–	> 32 µg/mL	reduction in bacterial growth by itself [24]: Neither OXA, MEM, CPT, or compound 4 by itself showed reduction in bacterial growth; MIC ([1]; HIP15178 (VRS5), agent alone, read-out: MIC): 8 µg/mL; MIC ([3]; LIM2 (NRS36), agent alone, read-out: MIC): 8 µg/mL; MIC ([8]; HIP 133170 (VRS3a), agent alone, read-out: MIC): 16 µg/mL; MIC ([11]; CA-347 (NRS648), agent alone, read-out: MIC): 16 µg/mL; MIC ([12]; HIP 07930 (NRS22), agent alone, read-out: MIC): 8 µg/mL; MIC ([13]; SR4035, agent alone, read-out: MIC): 16 µg/mL; MIC ([14]; AIS 1000505 (VRS10), agent alone, read-out: MIC): 32 µg/mL; MIC ([19]; CO-23 (NRS661), agent alone, read-out: MIC): 32 µg/mL; MIC ([20]; M1712 (NRS127), agent alone, read-out: MIC): 16 µg/mL; MIC [21, 34]: 8 µg/mL; MIC ([23]; HT 20020320 (NRS245), agent alone, read-out: MIC): 8 µg/mL
Cc1onc(-c2ccccc2)c1C(=O)N[C@@H]1C(=O)N2[C@@H]1SC(C)(C)[C@@H]2C(=O)O [OXA, oxacillin]	256 µg/mL	–	64 µg/mL	–	–	–	–	256 µg/mL	–	–	256 µg/mL	64 µg/mL	128 µg/mL	256 µg/mL	–	–	–	–	256 µg/mL	512 µg/mL	reduction in bacterial growth by itself [24]: Neither OXA, MEM, CPT, or compound 4 by itself showed reduction in bacterial growth; MIC [2]: 2 µg/mL; MIC of the β-lactam with 4 ([5]; Concentration of 4: 4 mg · L^−1): 0.03 µg/mL; MIC [6]: 512 µg/mL; MIC [7]: 0.25 µg/mL; MIC [9]: 64 µg/mL; MIC [10]: 64 µg/mL; MIC ([15]; Staphylococcus aureus): 256 µg/mL; MIC [16]: 2 µg/mL; MIC [17]: 512 µg/mL; MIC [18]: 512 µg/mL; MIC [20]: 256 µg/mL; MIC [21]: 64 µg/mL; MIC [23]: 64 µg/mL
